According to the supplement of paper PMC11451515:

Legend:
Assay in all cases: AUC of viability dose-response curve (% viability x log10 dose units); higher = less sensitive
Settings in all cases: 48 h
SEM cells = test system: SEM cells
Summary of the method: (§1)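 Viability of medium-adapted leukemia cells was measured by CellTiter-Glo One luminescence after 48 h at 37°C with library compounds in DMSO. Doses were 11 threefold steps from 47 μM to 0.79 nM, in 1536-well plates at 500 or 1000 cells/well. Signals were normalised per plate to DMSO and cell-free wells and fitted with a four-parameter log-logistic model on log10 dose. Area under the curve was integrated by trapezoidal rule, with curves exceeding full viability scaled and failed quality-control curves removed.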

P12-Ichikawa = test system: P12-Ichikawa
Summary of the method: as §1

NOMO1 = test system: NOMO1
Summary of the method: as §1

[1] = RPMI 5 mM glucose + 10% dialyzed FBS

Row | SMILES | AUC of viability dose-response curve (SEM cells; HPLM + 10% dialyzed FBS) | AUC of viability dose-response curve (SEM cells; RPMI 5 mM glucose + 10% FBS) | AUC of viability dose-response curve (SEM cells; [1]) | AUC of viability dose-response curve (P12-Ichikawa; HPLM + 10% dialyzed FBS) | AUC of viability dose-response curve (P12-Ichikawa; RPMI 5 mM glucose + 10% FBS) | AUC of viability dose-response curve (P12-Ichikawa; [1]) | AUC of viability dose-response curve (NOMO1; HPLM + 10% dialyzed FBS) | AUC of viability dose-response curve (NOMO1; RPMI 5 mM glucose + 10% FBS) | AUC of viability dose-response curve (NOMO1; [1])
1 | OC[C@H]1O[C@@H](Oc2cc(O)cc(/C=C/c3ccc(O)cc3)c2)[C@H](O)[C@@H](O)[C@@H]1O | 451 | 433 | 429 | 449 | 465 | 473 | 397 | 426 | 416
2 | NC(=O)Nc1cc(-c2cccc(F)c2)sc1C(=O)N[C@H]1CCCNC1 | 188 | 196 | 169 | 345 | 325 | 330 | 314 | 335 | 324
3 | COc1ncc(-c2ccc3c(Nc4cc(Oc5cc(F)cc(F)c5)cc(C(=O)O)c4)c([S+](=O)([O-])NC4CC4)cnc3c2)c(OC)n1 | 387 | 457 | 414 | 433 | 405 | 401 | 442 | 440 | 428
4 | CC(NCCc1ccc(O)cc1)C(O)c1ccc(O)cc1 (configuration not stated) | 412 | 452 | 413 | 465 | 469 | 460 | 459 | 446 | 451
5 | OCCC#Cc1nc(-c2ccc(F)cc2)c(-c2ccncc2)n1CCCc1ccccc1 | 475 | 467 | 456 | 476 | 467 | 468 | 463 | 465 | 472
6 | COc1cc(CNC(=O)CCCC/C=C/C(C)C)ccc1O | 343 | 310 | 329 | 287 | 322 | 305 | 380 | 368 | 399
7 | N#C/C(C(=O)c1ccc(Cl)cc1Cl)=C1/NC(=O)c2ccc(Cl)cc2N1 | 459 | 449 | 454 | 451 | 440 | 463 | 453 | 453 | 456
8 | CC1(C)C(N(O)C(=O)Nc2ccc(Cl)cc2)N(c2ccc(Cl)cc2)C(=O)N1CC(=O)N/N=C/C=C/c1ccc([N+](=O)[O-])o1 (configuration not stated) | 453 | 386 | 382 | 465 | 461 | 453 | 447 | 447 | 468
9 | Cc1noc(-c2ccc(CSCCC(=O)O)cc2)c1NC(=O)OC(C)c1ccccc1Cl (configuration not stated) | 453 | 433 | 471 | 464 | 428 | 437 | 468 | 457 | 432
10 | CCOC1=CC=CC=C1N\2C(=O)C3=C(C=CC=C3)\N=C2C(C)N4CCN(CC4)C(=O)COC5=CC=C(Cl)C=C5 (configuration not stated) | 323 | 280 | 297 | 303 | 327 | 320 | 304 | 330 | 357
11 | OC[C@H]1O[C@@H]2[C@@H](OC\3=N\C(=N)\C=C/[N@@]23)[C@@H]1O | 277 | 264 | 223 | 248 | 241 | 251 | 348 | 374 | 344
12 | c1ccc(-c2oc3ncnc(NC[C@@H]4CCCO4)c3c2-c2ccccc2)cc1 | 468 | 463 | 467 | 461 | 454 | 455 | 454 | 467 | 454
13 | Cc1ccc2c(c1)c1c(n2CCc2ccc(C)nc2)CCN(C)C1 | 472 | 471 | 474 | 459 | 465 | 469 | 447 | 458 | 472
14 | CC(C)(O)/C=C\C(=O)[C@](C)(O)[C@H]1[C@H](O)C[C@]2(C)[C@@H]3CC=C4[C@@H](C=C(O)C(=O)C4(C)C)[C@]3(C)C(=O)C[C@@]12C | 234 | 209 | 221 | 269 | 251 | 259 | 272 | 273 | 268
15 | CC(C)Cc1ccc(C(C)C(=O)O)cc1 (configuration not stated) | 371 | 396 | 425 | 442 | 408 | 410 | – | – | –
16 | CN(C)C(=O)C(CCN1CCC(O)(c2ccc(Cl)cc2)CC1)(c1ccccc1)c1ccccc1 | 445 | 436 | 449 | 460 | 444 | 444 | 448 | 445 | 436
17 | C#CCN[C@@H]1CCc2ccccc21.CS(=O)(=O)O | 445 | 441 | 438 | 463 | 448 | 434 | 436 | 426 | 459
18 | O.O.CCN1CCN(C(=O)N[C@H](C(=O)N[C@H]2[C@@H]3SC\C(=C(/N3C2=O)C(O)=O)CSC4=NN=N[N]4C)C5=CC=C(O)C=C5)C(=O)C1=O | 422 | 425 | 413 | – | – | – | – | – | –
19 | OCCn1cc(-c2cnc3nnn(Cc4ccc5ncccc5c4)c3n2)cn1 | 430 | 389 | 430 | 457 | 455 | 459 | 440 | 471 | 456
20 | C[C@H]1O[C@H](C[C@H](O)[C@@H]1O)O[C@H]2[C@@H](O)C[C@@H](O[C@@H]2C)O[C@H]3[C@@H](O)C[C@@H](O[C@@H]3C)O[C@H]4CC[C@@]5(C)[C@H](CC[C@@H]6[C@@H]5C[C@@H](O)[C@]7(C)[C@H](CC[C@]67O)C/8=C/C(=O)OC8)C4 | 200 | 250 | 239 | 208 | 242 | 227 | 226 | 280 | 253
21 | CN1CCN(CCCN2c3ccccc3Sc3ccc(C(F)(F)F)cc32)CC1 | 447 | 451 | 463 | 426 | 423 | 456 | 379 | 357 | 384
22 | Cc1onc(-c2ccccc2)c1C(=O)N[C@@H]1C(=O)N2[C@@H]1SC(C)(C)[C@@H]2C(=O)[O-].[Na+] | – | – | – | 440 | 414 | 394 | 379 | 407 | 401
23 | CNC(=O)Nc1ccc(-c2nc(N3CC4CCC(C3)O4)c3cnn(C4CCC5(CC4)OCCO5)c3n2)cc1 | – | – | – | 389 | 324 | 336 | 359 | 367 | 338

Row | SMILES | AUC of viability dose-response curve (SEM cells; HPLM + 10% dialyzed FBS) | AUC of viability dose-response curve (SEM cells; RPMI 5 mM glucose + 10% FBS) | AUC of viability dose-response curve (SEM cells; [1]) | AUC of viability dose-response curve (P12-Ichikawa; HPLM + 10% dialyzed FBS) | AUC of viability dose-response curve (P12-Ichikawa; RPMI 5 mM glucose + 10% FBS) | AUC of viability dose-response curve (P12-Ichikawa; [1]) | AUC of viability dose-response curve (NOMO1; HPLM + 10% dialyzed FBS) | AUC of viability dose-response curve (NOMO1; RPMI 5 mM glucose + 10% FBS) | AUC of viability dose-response curve (NOMO1; [1])
24 | CNC(=O)[C@H](CC/1=C/N=C\2/C=C\C\C=C12)NC(=O)[C@H](CC(C)C)CC(=O)NO | 471 | 462 | 465 | 425 | 423 | 423 | 400 | 413 | 418
25 | NC/1=N/C(=O)N(/C=N1)[C@@H]2O[C@H](CO)[C@@H](O)[C@H]2O | 406 | 399 | 322 | 422 | 437 | 428 | 430 | 421 | 396
26 | CO/N=C(/C(=O)N[C@@H]1C(=O)N2C(C(=O)O)=C(CSC(=O)c3ccco3)CS[C@H]12)c1csc(N)n1 | – | – | – | 472 | 464 | 476 | 413 | 453 | 449
27 | CCOC(=O)Nc1ccc(NCc2ccc(F)cc2)nc1N | 467 | 466 | 461 | 456 | 451 | 464 | 439 | 469 | 469
28 | CC[C@]1(O)C[C@@H]2CN(CCc3c([nH]c4ccccc34)[C@@](C(=O)OC)(c3cc4c(cc3OC)N(C)[C@H]3[C@@](O)(C(N)=O)[C@H](O)[C@]5(CC)C=CCN6CC[C@]43[C@@H]65)C2)C1 | 250 | 217 | 258 | 231 | 218 | 263 | 223 | 259 | 278
29 | O=[S+]([O-])(c1cccc2cnccc12)N1CCCNCC1 | 452 | 463 | 447 | 456 | 476 | 467 | 457 | 471 | 465
30 | COC1=CC=C(C=C1O)C/2=C/C(=O)C3=C(O2)C=C(O[C@@H]4O[C@H](CO[C@@H]5O[C@@H](C)[C@H](O)[C@@H](O)[C@H]5O)[C@@H](O)[C@H](O)[C@H]4O)C=C3O | 461 | 453 | 466 | 461 | 463 | 470 | 456 | 460 | 477
31 | CC(C)Oc1ccc(C(=O)N[C@H](CNC(=O)CN(C)C)Cc2ccc(-c3cn4cccc([C@H](C)O)c4n3)cc2)cc1Cl | 363 | 346 | 357 | 394 | 348 | 369 | 354 | 331 | 344
32 | Cc1cccc(/C=N/Nc2cc(N3CCOCC3)nc(OCCc3ccccn3)n2)c1 | 415 | 396 | 358 | 399 | 373 | 343 | 382 | 352 | 322
33 | C[C@@]1(C(=O)Nc2ccc(F)nc2)CCCN1c1nc(Nc2cc(C3CC3)[nH]n2)c2cccn2n1 | – | – | – | 374 | 380 | 393 | 369 | 417 | 392
34 | OC1=CC2=C(C(=C1)O)C(=O)\C(=C(/O2)C3=CC(=C(O)C=C3)O)O | 454 | 470 | 454 | 469 | 471 | 469 | 459 | 465 | 469
35 | CNC(=O)CN1CCC(Oc2cc3c(Nc4cccc(Cl)c4F)ncnc3cc2OC)CC1 | 457 | 469 | 469 | 364 | 356 | 374 | 320 | 302 | 325
36 | Nc1ncnc2c1c(-c1cccc(OCc3ccccc3)c1)cn2C1CC(CN2CCCC2)C1 (configuration not stated) | 388 | 414 | 405 | 463 | 466 | 465 | 411 | 441 | 423
37 | COC1=CC=C2/C3=N/CCN3\C(=N/C2=C1OC)NC(=O)C4=CC=CN=C4 | 452 | 419 | 422 | 457 | 427 | 439 | 427 | 462 | 402
38 | COc1cccc2c1CCCC2CCCN1CCN(C2CCCCC2)CC1 (configuration not stated) | 427 | 428 | 454 | 469 | 459 | 460 | 462 | 457 | 450
39 | COC1=CC=C2CN(C)CC[C@@]34\C=C/[C@H](O)C[C@@H]3OC1=C24 | – | – | – | 449 | 456 | 454 | 437 | 468 | 451
40 | CO/N=C(\C(=O)N[C@@H]1C(=O)N2C(C(=O)OCOC(=O)C(C)(C)C)=C(/C=C\c3scnc3C)CS[C@H]12)c1csc(N)n1 | 419 | 412 | 453 | 463 | 449 | 451 | 453 | 448 | 398
41 | COc1cccc2c1[C@]13CCN(CC4CC4)[C@H](C2)[C@]1(OC)CCC(=O)C3 | 422 | 416 | 421 | 451 | 436 | 446 | 469 | 459 | 473
42 | CCN1CCN(C(=O)Cc2ccc(Nc3ncc(F)c(Nc4ccc(C(=O)Nc5ccccc5Cl)cc4)n3)cc2)CC1 | 402 | 383 | 386 | 405 | 418 | 413 | 420 | 430 | 420
43 | N=C1N[C@H]2[C@H](CS[C@H]2CCCCC(=O)O)N1 | – | – | – | 464 | 464 | 470 | 456 | 473 | 443
44 | CC(C)(O)c1cc2nc(-c3cnc(N)nc3)nc(N3CCOCC3)c2s1 | – | – | – | 406 | 361 | 363 | 343 | 402 | 334
45 | Cc1c[nH]c(-c2cnc(NCCNc3ccc(C#N)cn3)nc2-c2ccc(Cl)cc2Cl)n1 | – | – | – | 397 | 366 | 379 | 398 | 381 | 396
